Paper PMC7534258, “Novel temporin L antimicrobial peptides: promoting self-assembling by lipidic tags to tackle superbugs” (Journal of Enzyme Inhibition and Medicinal Chemistry, 2020)
Converted amounts (≈) assume the structure as drawn. Where a SMILES comes first, the peptide text is derived from it. [ ]: non-standard residue; d: D form. The star is where a group is joined. Tridecanoyl = CCCCCCCCCCCCC(=O)*; Undecanoyl = CCCCCCCCCCC(=O)*; Heptanoyl = CCCCCCC(=O)*; Orn = NCCC[C@H](N)C(=O)O; Pentanoyl = CCCCC(=O)*

Assays:
P. aeruginosa ATCC 27853 = experiment: Broth microdilution MIC, reference strain; format: cell-based, Pseudomonas aeruginosa; conditions: for Antimicrobial activity (MIC) P. aeruginosa ATCC 27853: 100% growth inhibition after 16–18 h at 37 °C
Method: (§1) Staphylococcus aureus ATCC 25923, Pseudomonas aeruginosa ATCC 27853 and Klebsiella pneumoniae ATCC BAA-1705 (carbapenemase producer) were obtained from the American Type Culture Collection (Rockville, MD).
(§2) Identification was performed by sub-culturing on Tryptic Soy Agar (TSA, Becton Dickinson) and by biochemical characterisation using the Vitek II system (Biomerieux). The antimicrobial susceptibility testing of all isolates was determined using Vitek II system and results were interpreted according to European Committee on Antimicrobial Susceptibility Testing (EUCAST version 9.0, 2019). P. aeruginosa was cultured in Brain Heart Infusion broth (BHI, OXOID), S. aureus and K. pneumoniae were cultured in Tryptic Soya broth (TSB, OXOID), under aerobic conditions at 37 °C, for 24 h on an orbital shaker at 200 rpm.
(§3) Minimal inhibitory concentrations (MIC) of all the peptides were determined in Mueller–Hinton medium by the broth microdilution assay, following the procedure already described[22]^,[34]. The compounds were added to bacterial suspension in each well yielding a final cell concentration of 1 × 10^6 CFU/ml and a final compound concentration ranging from 0.78 to 100 µM. Negative control wells were set to contain bacteria in Mueller–Hinton broth plus the amount of vehicle (ethanol) used to dilute each compound. Positive controls included vancomycin (2 µg/ml), tobramycin (4 µg/ml), gentamycin (4 µg/ml), and imipenem (8 µg/ml).

S. aureus ATCC 25923 = experiment: microbe, parasite or virus in culture; conditions: for MIC: Staphylococcus aureus, ATCC25923, read-out: Antimicrobial activity (MIC) S. aureus ATCC 25923
Method: as §1, §2, §3

[1] = tested on: K. pneumoniae ATCC BAA-1705; experiment: Broth microdilution MIC, reference strain; format: cell-based, Klebsiella pneumoniae
Method: as §1, §2, §3

Pa2 = experiment: microbe, parasite or virus in culture; conditions: Pseudomonas aeruginosa, read-out: Antimicrobial activity (MIC) Pa2
Method: (§4) Clinical strains of P. aeruginosa (Pa1, Pa2 and Pa3), K. pneumoniae (KpCR1, KpCR2 and KpCR3), and S. aureus (Sa1, Sa2 and Sa3) were isolated from bloodstream or pulmonary infections, and belong to a collection of bacterial strains established between 2010 and 2018 at the Department of Molecular Medicine and Medical Biotechnologies (University Federico II, Naples) for research use.
as §2, §3

Sa2 = experiment: microbe, parasite or virus in culture; conditions: Staphylococcus aureus, MRSA, read-out: Antimicrobial activity (MIC) Sa2
Method: as §4, §2, §3

KpCR2 = experiment: microbe, parasite or virus in culture; conditions: Klebsiella pneumoniae, read-out: Antimicrobial activity (MIC) KpCR2
Method: as §4, §2, §3

Pa1 = experiment: microbe, parasite or virus in culture; conditions: Pseudomonas aeruginosa, PA1, read-out: Antimicrobial activity (MIC) Pa1
Method: as §4, §2, §3

KpCR3 = experiment: microbe, parasite or virus in culture; conditions: Klebsiella pneumoniae, read-out: Antimicrobial activity (MIC) KpCR3
Method: as §4, §2, §3

Sa3 = experiment: microbe, parasite or virus in culture; conditions: Staphylococcus aureus, MRSA, read-out: Antimicrobial activity (MIC) Sa3
Method: as §4, §2, §3

Pa3 = experiment: microbe, parasite or virus in culture; conditions: Pseudomonas aeruginosa, read-out: Antimicrobial activity (MIC) Pa3
Method: as §4, §2, §3

KpCR1 = experiment: microbe, parasite or virus in culture; conditions: Klebsiella pneumoniae, read-out: Antimicrobial activity (MIC) KpCR1
Method: as §4, §2, §3

Sa1 = experiment: microbe, parasite or virus in culture; conditions: Staphylococcus aureus, MRSA, read-out: Antimicrobial activity (MIC) Sa1
Method: as §4, §2, §3

[2] = 100% growth inhibition after 16–18 h at 37 °C

| Compound | Antimicrobial activity (MIC) P. aeruginosa ATCC 27853 (P. aeruginosa ATCC 27853) [µM] | Antimicrobial activity (MIC) S. aureus ATCC 25923 (S. aureus ATCC 25923; [2]) [µM] | Antimicrobial activity (MIC) K. pneumoniae ATCC BAA-1705 [1, 2] [µM] | Antimicrobial activity (MIC) S. aureus ATCC 25923 (S. aureus ATCC 25923; ATCC 25923) [µM] | further results |
| --- | --- | --- | --- | --- | --- |
| CCCCCCCCCCCCC(=O)N[C@@H](Cc1ccccc1)C(=O)N[C@H](C(=O)N1CCC[C@H]1C(=O)N[C@@H](Cc1c[nH]c2ccccc12)C(=O)N[C@@H](Cc1ccccc1)C(=O)N[C@@H](CO)C(=O)N[C@@H](CCCCN)C(=O)N[C@@H](Cc1ccccc1)C(=O)N[C@H](CC(C)C)C(=O)N[C@H](CCCCN)C(=O)N[C@@H](CCCNC(=N)N)C(=O)N[C@H](C(=O)N[C@@H](CC(C)C)C(N)=O)[C@@H](C)CC)C(C)C [Compound 5B, CH3(CH2)11CO-Phe-Val-Pro-Trp-Phe-Ser-Lys-Phe-DLeu-DLys-Arg-Ile-Leu-NH2] (Tridecanoyl-FVPWFSKF[dL][dK]RIL-NH2) | > 100 | > 100 | > 100 |  |  |
| C[C@@H](O)[C@H]1C(=O)N2C(C(=O)O)=C(SCCN=CN)C[C@H]12 [Imipenem] |  |  |  |  | MIC (P. aeruginosa ATCC 27853; Pseudomonas aeruginosa, ATCC27853, antibiotics, 16–18 h at 37 °C, read-out: Antimicrobial activity (MIC) P. aeruginosa ATCC 27853): 4 µg/mL (≈ 13.4 µM); MIC (Pa2): > 4 µg/mL; MIC (Sa2): > 8 µg/mL; MIC (KpCR2): > 8 µg/mL; MIC (Pa1): > 4 µg/mL; MIC (KpCR3): > 8 µg/mL; MIC (Sa3): > 8 µg/mL; MIC (Pa3): > 4 µg/mL; MIC (KpCR1): > 8 µg/mL; MIC (Sa1): 8 µg/mL (≈ 26.7 µM); MIC (S. aureus ATCC 25923): 0.5 µg/mL (≈ 1.67 µM); MIC ([1]; Klebsiella pneumoniae, ATCCBAA1705, antibiotics, 16–18 h at 37 °C, read-out: Antimicrobial activity (MIC) K. pneumoniae ATCC BAA-1705): > 8 µg/mL |
| CCCCC(=O)NCCC[C@H](NC(=O)[C@H](CC(C)C)NC(=O)[C@@H](NC(=O)[C@H](CCCNC(=N)N)NC(=O)[C@@H](CCCCN)NC(=O)[C@@H](CC(C)C)NC(=O)[C@H](Cc1ccccc1)NC(=O)[C@H](CCCCN)NC(=O)[C@H](CO)NC(=O)[C@H](Cc1ccccc1)NC(=O)[C@H](Cc1c[nH]c2ccccc12)NC(=O)[C@@H]1CCCN1C(=O)[C@@H](NC(=O)[C@@H](N)Cc1ccccc1)C(C)C)[C@@H](C)CC)C(N)=O [D, H-Phe-Val-Pro-Trp-Phe-Ser-Lys-Phe-DLeu-DLys-Arg-Ile-Leu-Orn(NHCO(CH2)3CH3)-NH2] (H-FVPWFSKF[dL][dK]RIL[Orn](Pentanoyl)-NH2) |  |  |  | 25 | Antimicrobial activity (MIC) K. pneumoniae ATCC BAA-1705 ([1]; ATCC BAA-1705): 50 µM |
| CCCCCCC(=O)NCCC[C@H](NC(=O)[C@H](CC(C)C)NC(=O)[C@@H](NC(=O)[C@H](CCCNC(=N)N)NC(=O)[C@@H](CCCCN)NC(=O)[C@@H](CC(C)C)NC(=O)[C@H](Cc1ccccc1)NC(=O)[C@H](CCCCN)NC(=O)[C@H](CO)NC(=O)[C@H](Cc1ccccc1)NC(=O)[C@H](Cc1c[nH]c2ccccc12)NC(=O)[C@@H]1CCCN1C(=O)[C@@H](NC(=O)[C@@H](N)Cc1ccccc1)C(C)C)[C@@H](C)CC)C(N)=O [E, H-Phe-Val-Pro-Trp-Phe-Ser-Lys-Phe-DLeu-DLys-Arg-Ile-Leu-Orn(NHCO(CH2)5CH3)-NH2] (H-FVPWFSKF[dL][dK]RIL[Orn](Heptanoyl)-NH2) |  |  |  | 25 | Antimicrobial activity (MIC) K. pneumoniae ATCC BAA-1705 ([1]; ATCC BAA-1705): 50 µM |
| CCCCCCCCCCC(=O)N[C@@H](Cc1ccccc1)C(=O)N[C@H](C(=O)N1CCC[C@H]1C(=O)N[C@@H](Cc1c[nH]c2ccccc12)C(=O)N[C@@H](Cc1ccccc1)C(=O)N[C@@H](CO)C(=O)N[C@@H](CCCCN)C(=O)N[C@@H](Cc1ccccc1)C(=O)N[C@H](CC(C)C)C(=O)NCC(=O)N[C@@H](CCCNC(=N)N)C(=O)N[C@H](C(=O)N[C@@H](CC(C)C)C(N)=O)[C@@H](C)CC)C(C)C [Compound 4A, CH3(CH2)9CO-Phe-Val-Pro-Trp-Phe-Ser-Lys-Phe-DLeu-Gly-Arg-Ile-Leu-NH2] (Undecanoyl-FVPWFSKF[dL]GRIL-NH2) | > 100 | > 100 | > 100 |  |  |
| CCCCCCCCCCC(=O)N[C@@H](Cc1ccccc1)C(=O)N[C@H](C(=O)N1CCC[C@H]1C(=O)N[C@@H](Cc1c[nH]c2ccccc12)C(=O)N[C@@H](Cc1ccccc1)C(=O)N[C@@H](CO)C(=O)N[C@@H](CCCCN)C(=O)N[C@@H](Cc1ccccc1)C(=O)N[C@H](CC(C)C)C(=O)N[C@H](CCCCN)C(=O)N[C@@H](CCCNC(=N)N)C(=O)N[C@H](C(=O)N[C@@H](CC(C)C)C(N)=O)[C@@H](C)CC)C(C)C [Compound 4B, CH3(CH2)9CO-Phe-Val-Pro-Trp-Phe-Ser-Lys-Phe-DLeu-DLys-Arg-Ile-Leu-NH2] (Undecanoyl-FVPWFSKF[dL][dK]RIL-NH2) | > 100 | > 100 | > 100 |  |  |
| CC[C@H](C)[C@H](NC(=O)[C@H](CCCNC(=N)N)NC(=O)CNC(=O)[C@@H](CC(C)C)NC(=O)[C@H](Cc1ccccc1)NC(=O)[C@H](CCCCN)NC(=O)[C@H](CO)NC(=O)[C@H](Cc1ccccc1)NC(=O)[C@H](Cc1c[nH]c2ccccc12)NC(=O)[C@@H]1CCCN1C(=O)[C@@H](NC(=O)[C@@H](N)Cc1ccccc1)C(C)C)C(=O)N[C@@H](CC(C)C)C(N)=O [Compound 1A, H-Phe-Val-Pro-Trp-Phe-Ser-Lys-Phe-dLeu-Gly-Arg-Ile-Leu-NH2] (H-FVPWFSKF[dL]GRIL-NH2) | 50 | 6.25 | 50 |  |  |
| CN[C@H](CC(C)C)C(=O)N[C@H]1C(=O)N[C@@H](CC(N)=O)C(=O)N[C@H]2C(=O)N[C@H]3C(=O)N[C@H](C(=O)N[C@H](C(=O)O)c4cc(O)cc(O)c4-c4cc3ccc4O)[C@H](O)c3ccc(c(Cl)c3)Oc3cc2cc(c3O[C@@H]2O[C@H](CO)[C@@H](O)[C@H](O)[C@H]2O[C@H]2C[C@](C)(N)[C@H](O)[C@H](C)O2)Oc2ccc(cc2Cl)[C@H]1O [Vancomycin] |  |  |  |  | MIC (Sa2): 1 µg/mL (≈ 0.69 µM); MIC (Sa3): 2 µg/mL (≈ 1.38 µM); MIC (Sa1): 2 µg/mL (≈ 1.38 µM); MIC (S. aureus ATCC 25923): 2 µg/mL (≈ 1.38 µM) |
| CCCCC(=O)N[C@@H](Cc1ccccc1)C(=O)N[C@H](C(=O)N1CCC[C@H]1C(=O)N[C@@H](Cc1c[nH]c2ccccc12)C(=O)N[C@@H](Cc1ccccc1)C(=O)N[C@@H](CO)C(=O)N[C@@H](CCCCN)C(=O)N[C@@H](Cc1ccccc1)C(=O)N[C@H](CC(C)C)C(=O)NCC(=O)N[C@@H](CCCNC(=N)N)C(=O)N[C@H](C(=O)N[C@@H](CC(C)C)C(N)=O)[C@@H](C)CC)C(C)C [Compound 2A, CH3(CH2)3CO-Phe-Val-Pro-Trp-Phe-Ser-Lys-Phe-DLeu-Gly-Arg-Ile-Leu-NH2] (Pentanoyl-FVPWFSKF[dL]GRIL-NH2) |  |  |  | 12.5 |  |
| CCCCCCCCCCCCC(=O)N[C@@H](Cc1ccccc1)C(=O)N[C@H](C(=O)N1CCC[C@H]1C(=O)N[C@@H](Cc1c[nH]c2ccccc12)C(=O)N[C@@H](Cc1ccccc1)C(=O)N[C@@H](CO)C(=O)N[C@@H](CCCCN)C(=O)N[C@@H](Cc1ccccc1)C(=O)N[C@H](CC(C)C)C(=O)NCC(=O)N[C@@H](CCCNC(=N)N)C(=O)N[C@H](C(=O)N[C@@H](CC(C)C)C(N)=O)[C@@H](C)CC)C(C)C [Compound 5A, CH3(CH2)11CO-Phe-Val-Pro-Trp-Phe-Ser-Lys-Phe-DLeu-Gly-Arg-Ile-Leu-NH2] (Tridecanoyl-FVPWFSKF[dL]GRIL-NH2) | > 100 | > 100 | > 100 |  |  |
| CCCCCCC(=O)N[C@@H](Cc1ccccc1)C(=O)N[C@H](C(=O)N1CCC[C@H]1C(=O)N[C@@H](Cc1c[nH]c2ccccc12)C(=O)N[C@@H](Cc1ccccc1)C(=O)N[C@@H](CO)C(=O)N[C@@H](CCCCN)C(=O)N[C@@H](Cc1ccccc1)C(=O)N[C@H](CC(C)C)C(=O)NCC(=O)N[C@@H](CCCNC(=N)N)C(=O)N[C@H](C(=O)N[C@@H](CC(C)C)C(N)=O)[C@@H](C)CC)C(C)C [Compound 3A, CH3(CH2)5CO-Phe-Val-Pro-Trp-Phe-Ser-Lys-Phe-DLeu-Gly-Arg-Ile-Leu-NH2] (Heptanoyl-FVPWFSKF[dL]GRIL-NH2) |  |  |  | 12.5 |  |
